Data set [1] has as its target T1, purified recombinant enzyme Cdc25-C (MBP-Cdc25C) (Homo sapiens, UniProt P30307).
T1 construct: made in house
T1 sequence (P30307 1-473): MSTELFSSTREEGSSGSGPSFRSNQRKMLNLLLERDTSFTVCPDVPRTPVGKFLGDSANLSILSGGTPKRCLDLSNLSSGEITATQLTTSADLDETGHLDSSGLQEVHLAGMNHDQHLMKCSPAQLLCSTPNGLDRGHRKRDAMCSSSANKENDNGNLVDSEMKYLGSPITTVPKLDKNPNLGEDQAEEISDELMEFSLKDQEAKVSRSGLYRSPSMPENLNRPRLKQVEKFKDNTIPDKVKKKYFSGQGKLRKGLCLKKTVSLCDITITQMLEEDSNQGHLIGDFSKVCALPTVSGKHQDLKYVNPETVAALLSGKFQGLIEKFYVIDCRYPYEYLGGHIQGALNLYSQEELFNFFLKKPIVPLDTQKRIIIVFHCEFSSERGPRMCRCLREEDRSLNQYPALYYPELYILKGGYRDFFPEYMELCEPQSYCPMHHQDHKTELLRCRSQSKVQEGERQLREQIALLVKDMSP
The experiment in a line: Measurement of the phosphatase activity of the purified recombinant enzyme Cdc25C (OMFP dephosphorylation, fluorescence). The data set is classed as biochemical. The settings on record: OMFP 500 μM, 4 hours at 30° C. Here is the method: i) Measurement of the Phosphatase Activity of the Purified Recombinant Enzyme Cdc25C
The phosphatase activity of the protein MBP-Cdc25C is evaluated by the dephosphorylation of 3-O-methylfluorescein-phosphate (OMFP) to 3-O-methylfluorescein (OMF) with a determination of the fluorescence at 475 nm of the reaction product. This test makes it possible to identify inhibitors of the recombinant enzyme cdc25. The preparation of the fusion protein MBP-Cdc25C is described in the Patent Application PCT WO 01/44467.
The reaction is carried out in 384-well plate format at a final volume of 50 μl. The protein MBP-Cdc25C (prepared as described above) is preserved in the following elution buffer: 20 mM Tris-HCl pH 7.4; 250 mM NaCl; 1 mM EDTA; 1 mM of dithiothreitol (DTT); 10 mM maltose. It is diluted to a concentration of 60 μM in the following reaction buffer: 50 mM Tris-HCl pH 8.2; 50 mM NaCl; 1 mM DTT; 20% glycerol. Measurement of the background noise is carried out with the buffer without the addition of the enzyme. The products are tested at decreasing concentrations starting from 40 μM. The reaction is initiated by the addition of an OMFP solution at 500 μM final (prepared extemporaneously from a 12.5 mM stock solution in 100% DMSO (Sigma #M2629)). After 4 hours at 30° C. in a single-use 384-well plate, the fluorescence measured at OD 475 nm is read using a Victor^2 plate reader (EGG-Wallac). The determination of the concentration inhibiting the enzyme reaction by 50% is calculated from three independent experiments. Only the values contained in the linear part of the sigmoid are retained for linear regression analysis.

Data set [2] relates to Mia-Paca2 lines (human pancreatic cancer cells). The experiment in a line: Anti-proliferative activity, WST1 colorimetric test, Mia-Paca2 cells. The settings on record: MIA PaCa-2, 96 hours treatment, up to 10 μM, read-out: IC50 on the cell proliferation of the Mia-Paca2 lines. The data set is classed as cell-based. Here is the method:
(§1) ii) Characterization of Anti-Proliferative Activity:
(§2) By way of example, the effect of a treatment by the compounds of the examples described previously on two lines of human Mia-Paca2 and DU145 cells will be studied. The cell lines DU145 (human prostate cancer cells) and Mia-PaCa2 (human pancreatic cancer cells) were acquired from the American Tissue Culture Collection (Rockville, Md., USA). The cells placed in 80 μl of Dulbecco's Modified Eagle medium (Gibco-Brl, Cergy-Pontoise, France) completed with 10% foetal calf serum inactivated by heating (Gibco-Brl, Cergy-Pontoise, France), 50,000 units/l of penicillin and 50 mg/l streptomycin (Gibco-Brl, Cergy-Pontoise, France), and 2 mM of glutamine (Gibco-Brl, Cergy-Pontoise, France) were seeded on a 96-well plate on day 0. The cells were treated on day 1 for 96 hours at increasing concentrations of each of the compounds to be tested up to 10 μM. At the end of the of this period, quantification of the cell proliferation is evaluated by a colorimetric test based on the cleavage of the tetrazolium salt WST1 by the mitochondrial dehydrogenases in the viable cells leading to the formation of formazan (Boehringer Mannheim, Meylan, France). These tests are carried out in duplicate with 8 determinations per concentration tested. For each compound to be tested, the values included in the linear part of the sigmoid were retained for linear regression analysis and used in order to estimate the inhibitory concentration IC50. The products are solubilized in dimethylsulphoxide (DMSO) at to 10^−2M and finally used in culture with 0.1% DMSO.

The subject of data set [3] is DU-145 lines (human prostate cancer cells). Kind of data set: Anti-proliferative activity, WST1 colorimetric test, DU145 cells. It is filed as cell-based. The settings on record: 96 hours treatment, up to 10 μM, read-out: IC50 on the cell proliferation of the DU-145 lines. Here is the method:
as §1, §2

SMILES strings stand for the structures. Some results are limits rather than exact numbers.

For orientation: melting point means the temperature, or range, at which the solid turns liquid. `Cc1nc2c(s1)C(=O)C(NCCCN(C)CCCNC1=CC(=O)c3nc(C)sc3C1=O)=CC2=O` [Example 5, 6.6′-[(methylimino)bis(propane-3,1-diylimino)]bis(2-methyl-1,3-benzothiazole-4,7-dione)] registered a melting point of 91 to 93 °C. Moreover, the IC50 in data set [1] is ≤ 1 µM. In addition, the IC50 in data set [2] was ≤ 10 µM. Besides, the IC50 in data set [3] is ≤ 10 µM.
`CN(CCCNC1=CC(=O)c2sc(C(=O)NCCCN3CCCC3=O)nc2C1=O)CCCNC1=CC(=O)c2sc(C(=O)NCCCN3CCCC3=O)nc2C1=O` [Example 7, 5.5′-[(methylimino)bis(propane-3,1-diylimino)]bis{4,7-dioxo-N-[3-(2-oxopyrrolidin-1-yl)propyl]-4,7-dihydro-1,3-benzothiazole-2-carboxamide}]: the melting point lay in the range of 185 to 186 °C. For the same compound, the IC50 in data set [1] was ≤ 1 µM. Moreover, in data set [2], the IC50 is ≤ 10 µM. In data set [3], the IC50 is ≤ 10 µM.
Take `CN(CCCNC1=CC(=O)c2nc(-c3cc(F)ccc3F)oc2C1=O)CCCNC1=CC(=O)c2nc(-c3cc(F)ccc3F)oc2C1=O` [Example 8, 6.6′-[(methylimino)bis(propane-3,1-diylimino)]-bis[2-(2,5-difluorophenyl)-1,3-benzoxazole-4,7-dione]]: the melting point lay within 209 to 210 °C. Also, in data set [1], the IC50 was ≤ 1 µM. In addition, the IC50 in data set [2] was ≤ 10 µM. Further, in data set [3], the IC50 is ≤ 10 µM.
As for `CN(CCCNC1=CC(=O)c2nc(Cc3c(F)cccc3Cl)oc2C1=O)CCCNC1=CC(=O)c2nc(Cc3c(F)cccc3Cl)oc2C1=O` [Example 10, 6.6′-[(methylimino)bis(propane-3,1-diylimino)]bis[2-(2-chloro-6-fluorobenzyl)-1,3-benzoxazole-4,7-dione]], the melting point is 165 to 167 °C. In addition, the IC50 in data set [1] is ≤ 1 µM. Further, the IC50 in data set [2] was ≤ 10 µM. In addition, the IC50 in data set [3] was ≤ 10 µM.
`CN(CCCNC1=CC(=O)c2nc(-c3cccc(Br)c3)oc2C1=O)CCCNC1=CC(=O)c2nc(-c3cccc(Br)c3)oc2C1=O` [Example 11, 6.6′-[(methylimino)bis(propane-3,1-diylimino)]-bis[2-(3-bromophenyl)-1,3-benzoxazole-4,7-dione]]: the melting point was 199 to 200 °C. Besides, the IC50 in data set [1] was ≤ 5 µM. For the same compound, the IC50 in data set [2] was ≤ 10 µM. Also, the IC50 in data set [3] was ≤ 10 µM.
With `CN(CCCNC1=CC(=O)c2nc(-c3cccc(Cl)c3)oc2C1=O)CCCNC1=CC(=O)c2nc(-c3cccc(Cl)c3)oc2C1=O` [Example 14, 6.6′-[(methylimino)bis(propane-3,1-diylimino)]-bis[2-(3-chlorophenyl)-1,3-benzoxazole-4,7-dione]], the melting point was 196 to 197 °C. Besides, in data set [1], the IC50 is ≤ 1 µM. In data set [2], the IC50 was ≤ 10 µM. Also, in data set [3], the IC50 was ≤ 10 µM.
Compound `CN(CCCNC1=CC(=O)c2nc(-c3ccc(F)cc3)oc2C1=O)CCCNC1=CC(=O)c2nc(-c3ccc(F)cc3)oc2C1=O` [Example 15, 6.6′-[(methylimino)bis(propane-3,1-diylimino)]-bis[2-(4-fluorophenyl)-1,3-benzoxazole-4,7-dione]] had a melting point of 204 to 205 °C. Also, the IC50 in data set [1] is ≤ 1 µM. The IC50 in data set [2] was ≤ 10 µM. For the same compound, the IC50 in data set [3] is ≤ 10 µM.
In turn, `Cc1nc2c(s1)C(=O)C=C(NCCCN(CCCNC1=CC(=O)c3sc(C)nc3C1=O)CCCNC1=CC(=O)c3sc(C)nc3C1=O)C2=O` [Example 18] registered a melting point of 131 to 132 °C. The IC50 in data set [1] is ≤ 1 µM. Moreover, the IC50 in data set [2] was ≤ 10 µM. In addition, the IC50 in data set [3] is ≤ 10 µM.
As to `Cc1nc2c(s1)C(=O)C=C(NCC1CCC(CNC3=CC(=O)c4sc(C)nc4C3=O)CC1)C2=O` (stereo not drawn) [Example 20, 5.5′-[cyclohexane-1,4-diylbis(methyleneimino)]bis(2-methyl-1,3-benzothiazole-4,7-dione)], the melting point is > 240 °C. Also, the IC50 in data set [1] is ≤ 1 µM. Further, the IC50 in data set [2] is ≤ 10 µM. Further, in data set [3], the IC50 is ≤ 10 µM.
Regarding `CN(CCCNC1=CC(=O)c2scnc2C1=O)CCCNC1=CC(=O)c2scnc2C1=O` [Example 25, 5.5′-[(methylimino)bis(propane-3,1-diylimino)]bis(1,3-benzothiazole-4,7-dione)], the melting point is 223 to 224 °C. Besides, in data set [1], the IC50 is ≤ 1 µM. For the same compound, the IC50 in data set [2] was ≤ 10 µM. The IC50 in data set [3] was ≤ 10 µM.
For `CN(CCCNC1=CC(=O)c2sc(C(=O)N3CCOCC3)nc2C1=O)CCCNC1=CC(=O)c2sc(C(=O)N3CCOCC3)nc2C1=O` [Example 26, 5.5′-[(methylimino)bis(propane-3,1-diylimino)]bis[2-(morpholin-4-ylcarbonyl)-1,3-benzothiazole-4,7-dione]], the melting point lay within 207 to 208 °C. In addition, in data set [1], the IC50 is ≤ 1 µM. In data set [2], the IC50 was ≤ 10 µM. Further, the IC50 in data set [3] is ≤ 10 µM.
Compound `CN(CCCNC1=CC(=O)c2nc(C(=O)N3CCCC3)sc2C1=O)CCCNC1=CC(=O)c2nc(C(=O)N3CCCC3)sc2C1=O` [Example 31, 6.6′-[(methylimino)bis(propane-3,1-diylimino)]bis[2-(pyrrolidin-1-ylcarbonyl)-1,3-benzothiazole-4,7-dione]] gave a melting point of 237 to 238 °C. Besides, the IC50 in data set [1] was ≤ 1 µM. Also, in data set [2], the IC50 was ≤ 10 µM. Also, in data set [3], the IC50 was ≤ 10 µM.
On to `CN(CCCNC1=CC(=O)c2sc(C(=O)Nc3ccc(F)cc3)nc2C1=O)CCCNC1=CC(=O)c2sc(C(=O)Nc3ccc(F)cc3)nc2C1=O` [Example 32, 5.5′-[(methylimino)bis(propane-3,1-diylimino)]bis[N-(4-fluorophenyl)-4,7-dioxo-4,7-dihydro-1,3-benzothiazole-2-carboxamide]], for which the melting point was in the range of 262 to 263 °C. The IC50 in data set [1] is ≤ 1 µM. Further, the IC50 in data set [2] was ≤ 10 µM. Further, in data set [3], the IC50 is ≤ 10 µM.
`COc1ccc(CNC(=O)c2nc3c(s2)C(=O)C=C(NCCCN(C)CCCNC2=CC(=O)c4sc(C(=O)NCc5ccc(OC)cc5)nc4C2=O)C3=O)cc1` [Example 33, 5.5′-[(methylimino)bis(propane-3,1-diylimino)]bis[N-(4-methoxybenzyl)-4,7-dioxo-4,7-dihydro-1,3-benzothiazole-2-carboxamide]] came in with a melting point of 174 to 175 °C. Also, in data set [1], the IC50 was ≤ 1 µM. The IC50 in data set [2] was ≤ 10 µM. Also, in data set [3], the IC50 was ≤ 10 µM.
Consider `CN(CCCNC1=CC(=O)c2sc(C(=O)NC3CCCCC3)nc2C1=O)CCCNC1=CC(=O)c2sc(C(=O)NC3CCCCC3)nc2C1=O` [Example 35, 5.5′-[(methylimino)bis(propane-3,1-diylimino)]bis(N-cyclohexyl-4,7-dioxo-4,7-dihydro-1,3-benzothiazole-2-carboxamide)], for which the melting point lay in the range of 145 to 146 °C. Also, in data set [1], the IC50 is ≤ 1 µM. Besides, the IC50 in data set [2] was ≤ 10 µM. In addition, in data set [3], the IC50 is ≤ 10 µM.

These data come from patent US8017637B2, “Inhibitors of cdc phosphatases” (Ipsen Pharma S.A.S., priority 2004, dated 2011).
